Source: patent US4299767A, “Benzodiazepine derivatives” (Hoffmann-La Roche Inc., priority 1978, dated 1981)
Read-outs that look alike come from different tables or passages of the source.

Columns and labels:
[1] = acute toxicity, single oral administration to rats; details: rat, in vivo, p.o.
Text: (§1) The following Table contains results obtained with the aforementioned particularly preferred compounds inhibiting the intestinal resorption of cholesterol. For each of these compounds there are given the dose(s) administered (in μMol/kg p.o) as well as the cholesterol recovery (CHOREC), expressed in % of controls. Moreover, the Table contains data relating to the acute toxicity of the compounds investigated (LD 50 in mg/kg in the case of a single oral administration to rats): […]

[2] = tested on: intestinal resorption of cholesterol; experiment: inhibition of the intestinal resorption of cholesterol (cholesterol recovery, CHOREC); format: in vivo, normal female Fullinsdorf albino rats; details: rats
Protocol: The compounds to be tested are administered to groups of 6 normal female Fullinsdorf albino rats (body weight about 70 g) by oral intubation. This is followed immediately by oral intubation of a test meal containing radioactive cholesterol. Consecutively, feces are collected for three days, freeze dried and pulverized. An aliquot is burned for evaluation of fecal radioactivity. Controls excrete about 40-50% of the dietary radioactive cholesterol called cholesterol recovery (CHOREC) and arbitrarily set 100%. Animals treated with a substance inhibiting the intestinal resorption of cholesterol show a higher excretion of radioactive cholesterol in comparison with controls. The cholesterol recovery (CHOREC) of treated animals is expressed in % of controls.
as §1

aldosterone = experiment: aldosterone-antagonistic properties in adrenalectomised rats (urine volume, sodium and potassium excretion); format: in vivo, adrenalectomised female Holtzmann rats; details: Rattus norvegicus, po
Protocol: If benzodiazepine derivatives of formula I are administered to the animals before the treatment with aldosterone, then there is observed, in comparison with the animals which are treated only with aldosterone (control animals), a pronounced increase of the sodium excretion (i.e. the sodium retention caused by aldosterone is antagonised), whereas the potassium excretion and the urine volume are influenced to a lesser extent.
The standard experiment is carried out as follows:
Female Holtzmann rates (150-180 g) are bilaterally adrenalectomised 70 to 74 hours before the beginning of the experiment. After the operation, the animals receive a customary rat dry feed and 0.9% sodium chloride solution for drinking. 16-17 hours before the beginning of the experiment the feed is removed from the animals, but they can still drink, as before, 0.9% sodium chloride solution ad libitum. At the beginning of the experiment the substance to be tested as an aldosterone-antagonist is administered to the animals by means of a stomach probe. 30 minutes later the animals receive a subcutaneous injection of […] of aldosterone. After a further 90 minutes, the urinary bladders of the animals are emptied by careful suprapublic pressure, whereupon the animals are placed individually in metabolic cages without food and without drink. The urine of the animals is then collected for 3hours, whereupon their urinary bladders are once more emptied. The spontaneously excreted urine and the remaining urine obtained at the conclusion of the experiment by pressing-out the urinary bladders are collected in graduated centrifuge glasses. Sodium and potassium concentrations in the urine are determined with a flame photometer.
(§2) The following Table contains results obtained in the previously described experiment with representative benzodiazepine derivatives of formula I. In this Table there are given for each benzodiazepine derivative in question the dosage administered (in mg/kg p.o.) as well as the percentage variation in the urine volume, the sodium excretion and the potassium excretion in comparison with the control animals (i.e. in comparison with the animals treated only with aldosterone). Moreover, the Table contains data relating to the acute toxicity of the benzodiazepine derivatives investigated (LD 50 in mg/kg in the case of a single oral administration to mice).

[3] = acute toxicity, single oral administration to mice; details: mouse, in vivo, p.o.
Text: as §2

SMILES	LD50 [1] [mg/kg]	cholesterol recovery (CHOREC), in % of controls ([2]; 10 μMol/kg p.o.) [%]	cholesterol recovery (CHOREC), in % of controls ([2]; 30 μMol/kg p.o.) [%]	cholesterol recovery (CHOREC), in % of controls ([2]; 100 μMol/kg p.o.) [%]	cholesterol recovery (CHOREC), in % of controls ([2]; 1000 μMol/kg p.o.) [%]	cholesterol recovery (CHOREC), in % of controls ([2]; 300 μMol/kg p.o.) [%]	response vs control in vivo at 10 mg/kg (aldosterone; read-out: potassium excretion [K+], in %, based on control animals) [%]	response vs control in vivo at 10 mg/kg (aldosterone; read-out: sodium excretion [Na+], in %, based on control animals) [%]	response vs control in vivo at 10 mg/kg (aldosterone; read-out: urine volume, in %, based on control animals) [%]	LD50 [3] [mg/kg]
CC1N=C(c2ccccc2Cl)c2c(ccc(NC(=O)NCCO)c2Br)N(C)C1=O (racemic) [Example 48, rac-1-[6-bromo-5-(o-chlorophenyl)-2,3-dihydro-1,3-dimethyl-2-oxo-2H-1,4-benzodiazepin-7-yl]-3-(2-hydroxyethyl)urea]	> 5000	150	157	168	187					
CC1N=C(c2ccccc2Cl)c2c(ccc(NC(=O)NCCO)c2Cl)N(C)C1=O (racemic) [Example 49, rac-1-[6-chloro-5-(o-chlorophenyl)-2,3-dihydro-1,3-dimethyl-2-oxo-1H-1,4-benzodiazepin-7-yl]-3-(2-hydroxyethyl)urea]	> 5000				188					
CC1N=C(c2ccccc2F)c2c(ccc(NC(=O)NCCO)c2Br)N(C)C1=O (racemic) [Example 50, rac-1-[6-bromo-5-(o-fluorophenyl)-2,3-dihydro-1,3-dimethyl-2-oxo-1H-1,4-benzodiazepin-7-yl]-3-(2-hydroxyethyl)urea]	> 5000	132	160	155	189	169				
CCNC(=O)Nc1ccc2c(c1Cl)C(c1ccccc1F)=NCC(=O)N2C [Example 34, 1-[6-chloro-5-(o-fluorophenyl)-2,3-dihydro-1-methyl-2-oxo-1H-1,4-benzodiazepin-7-yl]-3-ethylurea]							149	271	156	2500 to 5000
CN1C(=O)CN=C(c2ccccc2F)c2c1ccc(NC(=O)N1CCOCC1)c2Cl [Example 51, N-[6-chloro-5-(o-fluorophenyl)-2,3-dihydro-1-methyl-2-oxo-1H-1,4-benzodiazepin-7-yl]-4-morpholinecarboxamide]	1250 to 2500				186					
